This is an account of results in patent US7109193B2, “Tricyclic diazepines tocolytic oxytocin receptor antagonists” (Wyeth, priority 2001, dated 2006).

The target of the first assay is T1, human vasopressin V2 receptor subtype (Homo sapiens, UniProt P30518).
T1 construct: host or cells: CHO cells (pZeoSV vector)
T1 sequence (P30518 whole entry): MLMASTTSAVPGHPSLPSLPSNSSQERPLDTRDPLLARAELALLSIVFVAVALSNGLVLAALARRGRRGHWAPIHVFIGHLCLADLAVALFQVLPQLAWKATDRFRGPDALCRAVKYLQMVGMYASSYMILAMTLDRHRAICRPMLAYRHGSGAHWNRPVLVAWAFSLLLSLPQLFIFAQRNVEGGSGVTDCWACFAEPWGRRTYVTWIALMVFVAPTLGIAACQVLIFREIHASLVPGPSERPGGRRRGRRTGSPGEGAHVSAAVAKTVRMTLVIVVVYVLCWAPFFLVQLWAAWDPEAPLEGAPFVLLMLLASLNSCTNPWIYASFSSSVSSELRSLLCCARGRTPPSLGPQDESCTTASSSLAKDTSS
Put plainly: Vasopressin binding in Chinese Hamster Ovary cell membranes expressing human vasopressin V2 subtype receptors. To be noted: 100 nM, CHO cell membranes, [3H]arginine vasopressin, values without parentheses. The essentials: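 Radioligand displacement on membranes from CHO cells stably expressing human V2 receptor, 25 to 50 μg protein/well, in 50 mM Tris-HCl pH 7.4 with MgCl2, BSA and protease inhibitors. [^3H]arginine vasopressin (8 nM working solution) incubated 60 min at room temperature; bound label measured by filtration and scintillation counting.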
Consider `COc1cccc(-c2ccc(C(=O)N3Cc4ccc(C(=O)N(C)CCN(C)C)n4Cc4ccccc43)cc2OC)c1` [Example 95, 10-[(2,3′-Dimethoxy[1,1′-biphenyl]-4-yl)carbonyl]-N-[2-(dimethylamino)ethyl]-N-methyl-10,11-dihydro-5H-pyrrolo[2,1-c][1,4]benzodiazepine-3-carboxamide], for which the inhibition (in general, the percentage by which the read-out fell short of the control) at 0.1 µM is 13%.

Consider `COc1cccc(-c2ccc(C(=O)N3Cc4ccc(C(=O)N(C)CCN(C)C)n4Cc4ccccc43)cc2C)c1` [Example 89, N-[2-(Dimethylamino)ethyl]-10-[(3′-methoxy-2-methyl[1,1′-biphenyl]-4-yl)carbonyl]-N-methyl-10,11-dihydro-5H-pyrrolo[2,1-c][1,4]benzodiazepine-3-carboxamide], for which the inhibition at 0.1 µM was 13%.

As to `COc1cccc(-c2ccc(C(=O)N3Cc4ccc(C(=O)NCCCN(C)C)n4Cc4ccccc43)cc2OC)c1` [Example 82, 10-[(2,3′-Dimethoxy[1,1′-biphenyl]-4-yl)carbonyl]-N-[3-(dimethylamino)propyl]-10,11-dihydro-5H-pyrrolo[2,1-c][1,4]benzodiazepine-3-carboxamide], the inhibition at 0.1 µM was 10%.

Take `COc1cccc(-c2ccc(C(=O)N3Cc4ccc(C(=O)N(C)CCCN(C)C)n4Cc4ccccc43)cc2C)c1` [Example 102, N-[3-(Dimethylamino)propyl]-10-[(3′-methoxy-2-methyl[1,1′-biphenyl]-4-yl)carbonyl]-N-methyl-10,11-dihydro-5H-pyrrolo[2,1-c][1,4]benzodiazepine-3-carboxamide]: the inhibition at 0.1 µM was determined as 18%.

In the case of `COc1cc(C(=O)N2Cc3ccc(C(=O)N(C)CCCN(C)C)n3Cc3ccccc32)ccc1-c1cccc2ccccc12` [Example 106, N-[3-(Dimethylamino)propyl]-10-[3-methoxy-4-(1-naphthyl)benzoyl]-N-methyl-10,11-dihydro-5H-pyrrolo[2,1-c][1,4]benzodiazepine-3-carboxamide], the inhibition at 0.1 µM worked out at 34%.

As to `Cc1ccccc1-c1ccc(C(=O)N2Cc3ccc(C(=O)N(C)CCCN(C)C)n3Cc3ccccc32)cc1` [Example 104, N-[3-(Dimethylamino)propyl]-N-methyl-10-[(2′-methyl[1,1′-biphenyl]-4-yl)carbonyl]-10,11-dihydro-5H-pyrrolo[2,1-c][1,4]benzodiazepine-3-carboxamide], the inhibition at 0.1 µM was 20%.

As for `COc1ccccc1-c1ccc(C(=O)N2Cc3ccc(C(=O)NCCCN(C)C)n3Cc3ccccc32)cc1OC` [Example 81, 10-[(2,2′-Dimethoxy[1,1′-biphenyl]-4-yl)carbonyl]-N-[3-(dimethylamino)propyl]-10,11-dihydro-5H-pyrrolo[2,1-c][1,4]benzodiazepine-3-carboxamide], the inhibition at 0.1 µM was 21%.

Take `COc1ccccc1-c1ccc(C(=O)N2Cc3ccc(C(=O)N(C)CCCN(C)C)n3Cc3ccccc32)cc1` [Example 103, N-[3-(Dimethylamino)propyl]-10-[(2′-methoxy[1,1′-biphenyl]-4-yl)carbonyl]-N-methyl-10,11-dihydro-5H-pyrrolo[2,1-c][1,4]benzodiazepine-3-carboxamide]: the inhibition at 0.1 µM amounted to 11%.

Staying with this assay, now noted: CHO cell membranes, [3H]arginine vasopressin, values in parentheses.
As to `COc1cc(-c2ccccc2C)c(Cl)cc1C(=O)N1Cc2ccc(C(=O)N3CCN(C)CC3)n2Cc2ccccc21` [Example 47, {10-[(6-Chloro-3-methoxy-2′-methyl[1,1′-biphenyl]-4-yl)carbonyl]-10,11-dihydro-5H-pyrrolo[2,1-c][1,4]benzodiazepin-3-yl}(4-methyl-1-piperazinyl)methanone], the IC50 – broadly, the midpoint of a concentration-inhibition curve – amounted to 722 nM.

`COc1ccccc1-c1ccc(C(=O)N2Cc3ccc(C(=O)N4CCN(C)CC4)n3Cc3ccccc32)cc1` [Example 48, {10-[(2′-Methoxy[1,1′-biphenyl]-4-yl)carbonyl]-10,11-dihydro-5H-pyrrolo[2,1-c][1,4]benzodiazepin-3-yl}(4-methyl-1-piperazinyl)methanone]: the IC50 was 700 nM.

Regarding `COc1cc(C(=O)N2Cc3ccc(C(=O)N(C)CCCN(C)C)n3Cc3ccccc32)ccc1-c1ccccc1C(F)(F)F` [Example 21, N-Methyl-[N-(3-dimethylamino)propyl]-10-{[2-methoxy-2′-trifluoromethyl-[1,1′-biphenyl]-4-yl]carbonyl}-10,11-dihydro-5H-pyrrolo[2,1-c][1,4]benzodiazepin-3-carboxamide], the IC50 worked out at 1160 nM.

In the case of `C=CCN1CCN(C(=O)c2ccc3n2Cc2ccccc2N(C(=O)c2ccc(-c4ccccc4C)c(C)c2)C3)CC1` [Example 220, (4-Allyl-1-piperazinyl){10-[(2,2′-dimethyl[1,1′-biphenyl]-4-yl)carbonyl]-10,11-dihydro-5H -pyrrolo[2,1-c][1,4]benzodiazepin-3-yl}methanone], the IC50 stood at 1820 nM.

For the compound `COc1cc(-c2ccccc2C)c(Cl)cc1C(=O)N1Cc2ccc(C(=O)N3CCC(N4CCCCC4)CC3)n2Cc2ccccc21` [Example 110, {10-[(6-Chloro-3-methoxy-2′-methyl[1,1′-biphenyl]-4-yl)carbonyl]-10,11-dihydro-5H-pyrrolo[2,1-c][1,4]benzodiazepin-3-yl}[4-(1-piperidinyl)-1-piperidinyl]methanone], the IC50 amounted to 788 nM.

As for `COc1ccccc1-c1ccc(C(=O)N2Cc3ccc(C(=O)N4CCN(CCCN(C)C)CC4)n3Cc3ccccc32)cc1` [Example 246, {4-[3-(Dimethylamino)propyl]-1-piperazinyl}{10-[(2′-methoxy[1,1′-biphenyl]-4-yl)carbonyl]-10,11-dihydro-5H-pyrrolo[2,1-c][1,4]benzodiazepin-3-yl}methanone], the IC50 is 508 nM.

For the compound `COc1cc(-c2ccccc2C)c(Cl)cc1C(=O)N1Cc2ccc(C(=O)N(C)CCN(C)C)n2Cc2ccccc21` [Example 86, 10-[(6-Chloro-3-methoxy-2′-methyl[1,1′-biphenyl]-4-yl)carbonyl]-N-[2-(dimethylamino)ethyl]-N-methyl-10,11-dihydro-5H-pyrrolo[2,1-c][1,4]benzodiazepine-3-carboxamide], the IC50 came to 1700 nM.

On to `COc1cccc(-c2cc(OC)c(C(=O)N3Cc4ccc(C(=O)N(C)CCCN(C)C)n4Cc4ccccc43)cc2Cl)c1` [Example 99, 10-[(6-Chloro-3,3′-dimethoxy[1,1′-biphenyl]-4-yl)carbonyl]-N-[3-(dimethylamino)propyl]-N-methyl-10,11-dihydro-5H-pyrrolo[2,1-c][1,4]benzodiazepine-3-carboxamide], for which the 50% inhibitory concentration (IC50) is 1330 nM.

`COc1cc(C(=O)N2Cc3cccn3Cc3ccccc32)ccc1-n1c(C)ccc1C` [Example 27, [4-(2,5-Dimethyl-1-H-pyrrol-1-yl)-3-methoxy-phenyl][10,11-dihydro-5H-pyrrolo[2,1-c][1,4]benzodiazepin-10-yl]methanone]: the IC50 is 149 nM.

Consider `COc1cc(-c2ccccc2C)c(Cl)cc1C(=O)N1Cc2ccc(C(=O)N(C)CCCN(C)C)n2Cc2ccccc21` [Example 98, 10-[(6-Chloro-3-methoxy-2′-methyl[1,1′-biphenyl]-4-yl)carbonyl]-N-[3-(dimethylamino)propyl]-N-methyl-10,11-dihydro-5H-pyrrolo[2,1-c][1,4]benzodiazepine-3-carboxamide], for which the IC50 came to 1030 nM.

Turning to `Cc1cc(C(=O)N2Cc3ccc(C(=O)N4CCN(C)CC4)n3Cc3ccccc32)ccc1-c1ccccc1C(F)(F)F` [Example 2, (4-Methyl-piperazin-1-yl)-[10-(2-methyl-2′-trifluoromethyl-[1,1′-biphenyl]-4-yl)-carbonyl]-10,11-dihydro-5H-pyrrolo[2,1-c][1,4]benzodiazepin-3-yl-methanone], the half-inhibitory concentration (IC50) is 1760 nM.

With `C=CCN1CCN(C(=O)c2ccc3n2Cc2ccccc2N(C(=O)c2cc(Cl)c(-c4ccccc4C)cc2OC)C3)CC1` [Example 219, (4-Allyl-1-piperazinyl){10-[(6-chloro-3-methoxy-2′-methyl[1,1′-biphenyl]-4-yl)carbonyl]-10,11-dihydro-5H-pyrrolo[2,1-c][1,4]benzodiazepin-3-yl}methanone], the IC50 was 1320 nM.

As to `COc1cc(-c2ccccc2Cl)c(Cl)cc1C(=O)N1Cc2ccc(C(=O)N(C)C3CCN(C)CC3)n2Cc2ccccc21` [Example 43, 10-[(2′-Chloro-6-chloro-3-methoxy-[1,1′-biphenyl]-4-yl)carbonyl]-N-methyl-N-(1-methylpiperidin-4-yl)-10,11-dihydro-5H-pyrrolo[2,1-c][1,4]benzodiazepine-3-carboxamide], the IC50 amounted to 409 nM.

Turning to `COc1cccc(-c2ccc(C(=O)N3Cc4ccc(C(=O)N5CCC[C@H]5CN5CCCC5)n4Cc4ccccc43)cc2C)c1` [Example 263, {10-[(3′-Methoxy-2-methyl[1,1′-biphenyl]-4-yl)carbonyl]-10,11-dihydro-5H-pyrrolo[2,1-c][1,4]benzodiazepin-3-yl}[(2S)-2-(1-pyrrolidinylmethyl)pyrrolidinyl]methanone], the IC50 was 4120 nM.

Turning to `Cc1cc(C(=O)N2Cc3ccc(C(=O)N(C)CCCN(C)C)n3Cc3ccccc32)ccc1-c1ccccc1C(F)(F)F` [Example 97, N-[3-(Dimethylamino)propyl]-N-methyl-10-{[2-methyl-2′-(trifluoromethyl)[1,1′-biphenyl]-4-yl]carbonyl}-10,11-dihydro-5H-pyrrolo[2,1-c][1,4]benzodiazepine-3-carboxamide], the 50% inhibitory concentration (IC50) came out at 2000 nM.
